Test results reported in patent US8691775B2, “Use of drugs that activate P2Y receptors to enhance synaptogenesis” (Back Bay Scientific, LLC, priority 2010, dated 2014).

Assays:
brain dendritic spines = experiment: Brain dendritic spines in laboratory animals injected intraperitoneally with test compound; format: in vivo; conditions: intraperitoneal injection after 6 weeks of diet
From the text: The laboratory animals are fed a food composition with or without a synthetic diet enriched with uridine, DHA and choline for 6 weeks, and are then intraperitoneally injected with a composition comprising the test compound.

[1] = tested on: PSD-95 protein in PC12 cells; experiment: Level of PSD-95 in PC12 cells incubated with test compound; format: cell-based; conditions: incubation 2 or 4 days
From the text: Postsynaptic protein PSD-95 is a member of the membrane-associated guanylate kinase (MAGUK) family. The protein is almost exclusively located in the postsynaptic density of neurons and is involved in anchoring synaptic proteins. The inventor hypothesized that active agents that increase the level of the PSD-95 protein in cultured cells may be screened for their ability to activate P2Y receptors in animal models.
PC12 cells, a cell line ultimately derived from neural cells, are maintained in Minimal Essential Medium (MEM; Invitrogen, Carlsbad, Calif.) supplemented with 10% fetal bovine serum (FBS) at 37° C. Experimental incubations are for 2 or 4 days in medium with or without test compounds.
The activity of each test compound is assessed by determining the effect of each test compound on the level of PSD-95 in the cells.

[2] = rats; cited from earlier work

For `CCCCCCSc1nc(N)c2ncn([C@@H]3O[C@H](COP(=O)(O)O)[C@@H](O)[C@H]3O)c2n1` [2-(hexylthio) (HT)-AMP], the “level of brain dendritic spines in laboratory animals” value (from here on “level of brain dendritic spines”) (brain dendritic spines) was “effective” and the “level of the PSD-95 protein in tissue culture” value (“level of the PSD-95 protein” for short) [1] was “effective”.
For `CSc1nc(N)c2ncn([C@@H]3O[C@H](COP(=O)(O)OP(=O)(O)OP(=O)(O)O)[C@@H](O)[C@H]3O)c2n1` [2-MeSATP], the “level of brain dendritic spines” value (brain dendritic spines) was “effective” and the “level of the PSD-95 protein” value [1] was “effective”.
In the case of `CSc1nc(N)c2ncn([C@@H]3O[C@H](COP(=O)([O-])OP(=O)([O-])[O-])[C@@H](O)[C@H]3O)c2n1.[Na+].[Na+].[Na+]` [2-Methylthio-ADP trisodium salt], the “level of brain dendritic spines” value (brain dendritic spines) is reported as “effective” and the “level of the PSD-95 protein” value [1] is reported as “effective”.
In the case of `O=c1ccn([C@@H]2O[C@H](COP(=O)([O-])OP(=O)([O-])OP(=O)([O-])[O-])[C@@H](O)[C@H]2O)c(=S)[nH]1.[Na+].[Na+].[Na+].[Na+]` [2-ThioUTP tetrasodium salt], the “level of brain dendritic spines” value (brain dendritic spines) is reported as “effective” and the “level of the PSD-95 protein” value [1] is reported as “effective”.
In the case of `O=c1ccn([C@@H]2O[C@H](COP(=O)(O)OP(=O)(O)OP(=O)(O)O)[C@@H](O)[C@H]2O)c(=S)[nH]1` [2-thio-UTP], the “level of brain dendritic spines” value (brain dendritic spines) is reported as “effective” and the “level of the PSD-95 protein” value [1] is reported as “effective”.
With `N[C@@H]1[C@H](O)[C@@H](COP(=O)(O)OP(=O)(O)OP(=O)(O)O)O[C@H]1n1ccc(=O)[nH]c1=O` [2′-deoxy-2′-amino-UTP] the “level of brain dendritic spines” value (brain dendritic spines) was “effective” and the “level of the PSD-95 protein” value [1] was “effective”.
For `Nc1ncnc2c1ncn2[C@@H]1O[C@H](COP(=O)(O)OP(=O)(O)O)[C@@H](O)[C@H]1O` [ADP], the “level of brain dendritic spines” value (brain dendritic spines) was “effective” and the “level of the PSD-95 protein” value [1] was “effective”.
For `Nc1ncnc2c1ncn2[C@@H]1O[C@H](COP(=O)(O)OP(=O)([O-])OP(=O)([O-])O)[C@@H](O)[C@H]1O.[Na+].[Na+]` [ATP disodium salt], the “level of the PSD-95 protein” value [1] was “effective”.
With `Nc1ncnc2c1ncn2[C@@H]1O[C@H](COP(=O)(O)OP(=O)(O)OP(=O)(O)OP(=O)(O)OC[C@H]2O[C@@H](n3cnc4c(N)ncnc43)[C@H](O)[C@@H]2O)[C@@H](O)[C@H]1O` [Ap4A] the “level of brain dendritic spines” value (brain dendritic spines) was “effective” and the “level of the PSD-95 protein” value [1] was “effective”.
For `Nc1ncnc2c1ncn2[C@@H]1O[C@H](COP(=O)(O)OP(=O)(O)OP(=O)(O)OP(=O)(O)OC[C@H]2O[C@@H](n3ccc(=O)[nH]c3=O)[C@H](O)[C@@H]2O)[C@@H](O)[C@H]1O` [Ap4U], the “level of brain dendritic spines” value (brain dendritic spines) was “effective” and the “level of the PSD-95 protein” value [1] was “effective”.
In the case of `Nc1ccn([C@@H]2O[C@H](COP(=O)(O)OP(=O)(O)OP(=O)(O)O)[C@@H](O)[C@H]2O)c(=O)n1` [CTP, cytidine-triphosphate], the “level of brain dendritic spines” value (brain dendritic spines) is reported as “effective” and the “level of the PSD-95 protein” value [1] is reported as “effective”.
In the case of `Nc1nc2c(ncn2[C@@H]2O[C@H](COP(=O)(O)OP(=O)(O)OP(=O)(O)O)[C@@H](O)[C@H]2O)c(=O)[nH]1` [GTP], the “level of brain dendritic spines” value (brain dendritic spines) is reported as “effective” and the “level of the PSD-95 protein” value [1] is reported as “effective”.
In the case of `O=c1ccn([C@@H]2O[C@H](COP(=O)(O)OP(=O)(O)OP(=O)(O)OP(=O)(O)OC[C@H]3O[C@@H](n4ccc(=O)[nH]c4=O)[C@H](O)[C@@H]3O)[C@@H](O)[C@H]2O)c(=O)[nH]1` [INS365], the “level of brain dendritic spines” value (brain dendritic spines) is reported as “effective” and the “level of the PSD-95 protein” value [1] is reported as “effective”.
In the case of `O=c1[nH]cnc2c1ncn2[C@@H]1O[C@H](COP(=O)(O)OP(=O)(O)OP(=O)(O)O)[C@@H](O)[C@H]1O` [ITP], the “level of brain dendritic spines” value (brain dendritic spines) is reported as “effective” and the “level of the PSD-95 protein” value [1] is reported as “effective”.
For `CSc1nc(N)c2ncn([C@H]3[C@H](O)[C@H](O)[C@]4(COP(=O)(O)OP(=O)(O)O)C[C@H]34)c2n1` [MRS 2365], the “level of brain dendritic spines” value (brain dendritic spines) was “effective” and the “level of the PSD-95 protein” value [1] was “effective”.
With `O=c1ccn([C@@H]2O[C@H](COP(=O)([O-])OP(=O)([O-])O[C@H]3O[C@H](CO)[C@@H](O)[C@H](O)[C@H]3O)[C@@H](O)[C@H]2O)c(=S)[nH]1.[Na+].[Na+]` [MRS 2690] the “level of brain dendritic spines” value (brain dendritic spines) was “effective” and the “level of the PSD-95 protein” value [1] was “effective”.
In the case of `N[C@@H]1[C@H](O)[C@@H](COP(=O)(O)OP(=O)(O)OP(=O)(O)O)O[C@H]1n1ccc(=O)[nH]c1=S` [MRS 2698], the “level of brain dendritic spines” value (brain dendritic spines) is reported as “effective” and the “level of the PSD-95 protein” value [1] is reported as “effective”.
For `O=C(Cn1c(=O)ccn(C2OC(COP(=O)(O)OP(=O)(O)O)C(O)C2O)c1=O)c1ccccc1` (stereo not shown) [PSB 0474], the “level of brain dendritic spines” value (brain dendritic spines) was “effective” and the “level of the PSD-95 protein” value [1] was “effective”.
In the case of `O=c1ccn([C@@H]2O[C@H](COP(=O)(O)OP(=O)(O)O)[C@@H](O)[C@H]2O)c(=O)[nH]1` [UDP, uridine 5′-diphosphate], the “level of brain dendritic spines” value (brain dendritic spines) is reported as “effective” and the “level of the PSD-95 protein” value [1] is reported as “effective”.
With `O=c1ccn([C@@H]2O[C@H](COP(=O)(O)OP(O)(O)=S)[C@@H](O)[C@H]2O)c(=O)[nH]1` [UDPβS, Uridine β-thiodiphosphate] the “level of brain dendritic spines” value (brain dendritic spines) was “effective” and the “level of the PSD-95 protein” value [1] was “effective”.
With `O=c1ccn([C@@H]2O[C@H](COP(=O)(O)OP(=O)(O)OP(=O)(O)O)[C@@H](O)[C@H]2O)c(=O)[nH]1` [UTP, uridine 5′-triphosphate] the “level of brain dendritic spines” value (brain dendritic spines) was “effective” and the “level of the PSD-95 protein” value [1] was “effective”.
In the case of `O=c1ccn(C2OC(COP(=O)([O-])OP(=O)([O-])OP(=O)([O-])S)C(O)C2O)c(=O)[nH]1.[Na+].[Na+].[Na+]` (stereo not shown) [UTPγS trisodium salt], the “level of brain dendritic spines” value (brain dendritic spines) is reported as “effective” and the “level of the PSD-95 protein” value [1] is reported as “effective”.
For `O=c1ccn([C@@H]2O[C@H](COP(=O)(O)OP(=O)(O)OP(O)(O)=S)[C@@H](O)[C@H]2O)c(=O)[nH]1` [UTPγS, uridine γ-thiophosphate], the “level of brain dendritic spines” value (brain dendritic spines) was “effective” and the “level of the PSD-95 protein” value [1] was “effective”.
For `Nc1ccn([C@H]2C[C@H](O)[C@@H](COP(=O)(O)OP(=O)(O)OP(=O)(O)OP(=O)(O)OC[C@H]3O[C@@H](n4ccc(=O)[nH]c4=O)[C@H](O)[C@@H]3O)O2)c(=O)n1` [denufosol], the “level of brain dendritic spines” value (brain dendritic spines) was “effective” and the “level of the PSD-95 protein” value [1] was “effective”.
For `O=c1ccn([C@@H]2O[C@H](CO)[C@@H](O)[C@H]2O)c(=O)[nH]1` [uridine], the “uridine entering the liver via the portal vein metabolized in a single pass” value [2] is given as “more than 90%”.
For `Nc1ncnc2c1ncn2[C@@H]1O[C@H](COP(=O)(O)CP(=O)([O-])OP(=O)([O-])[O-])[C@@H](O)[C@H]1O.[Na+].[Na+].[Na+]` [α,β-Methyleneadenosine 5′-triphosphate trisodium salt], the “level of brain dendritic spines” value (brain dendritic spines) was “effective” and the “level of the PSD-95 protein” value [1] was “effective”.
For `Nc1ncnc2c1ncn2[C@@H]1O[C@H](COP(=O)(O)CP(=O)(O)OP(=O)(O)O)[C@@H](O)[C@H]1O` [α,β-methylene ATP], the “level of brain dendritic spines” value (brain dendritic spines) was “effective” and the “level of the PSD-95 protein” value [1] was “effective”.
For BzATP triethylammonium salt, the “level of brain dendritic spines” value (brain dendritic spines) was “effective” and the “level of the PSD-95 protein” value [1] was “effective”.
In the case of diadenosine pentaphosphate, the “level of brain dendritic spines” value (brain dendritic spines) is reported as “effective” and the “level of the PSD-95 protein” value [1] is reported as “effective”.
With diuridine triphosphate the “level of brain dendritic spines” value (brain dendritic spines) was “effective” and the “level of the PSD-95 protein” value [1] was “effective”.
